The record followed here is ChEMBL document CHEMBL1201862, “PubChem BioAssay data set” (2004).

Among the test systems are SNB-78; SF-295; KM-20L2; HOP-92; CCRF-CEM; TK-10; UO-31; DMS-273; SN12C; UACC-62; SNB-75; LXFL 529; RXF 393; NCI-H23; EKVX; SF-268; HCC 2998; HCT-116; COLO 205; MDA-N.
Holding throughout (experiment): NCI tumour cell line growth inhibition, 48 h

Where “and” joins values, the source holds several entries; their conditions need not be identical. Equal entries are not always repeated.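 All cell lines were grown in 96-well plates and treated with compound for 48 hours. GI50 marks 50% less growth.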 Calls of active or inactive are those of the source. Cut-off read from the data, not from the text of the source: active = GI50 up to about 1.1 µM and inactive = higher.

On to `OC(c1ccccc1)(c1ccccc1)c1ccccn1`, for which the GI50 in the assay on SNB-78 is > 100 µM (inactive); in the assay with SF-295, > 100 µM (inactive) and 80.5 µM (inactive); in the assay with KM-20L2 it was > 100 µM (inactive); in the assay with HOP-92, > 100 µM (inactive); in the assay on CCRF-CEM, > 100 µM (inactive); with TK-10 it was > 100 µM (inactive). For the same compound, the GI50 in the assay on UO-31 is > 100 µM (inactive); in the assay with DMS-273, > 100 µM (inactive); in the assay with SN12C it was > 100 µM (inactive); in the assay with UACC-62 it was > 100 µM (inactive); in the assay with SNB-75, > 100 µM (inactive) and 63.7 µM (inactive); in the assay with LXFL 529, > 100 µM (inactive). Further, the GI50 in the assay on RXF 393 was > 100 µM (inactive); with NCI-H23, 83 µM (inactive); in the assay with EKVX it was > 100 µM (inactive); with SF-268, > 100 µM (inactive); in the assay with HCC 2998, > 100 µM (inactive); in the assay with HCT-116, > 100 µM (inactive). For the same compound, in the assay with COLO 205, the GI50 was > 100 µM (inactive).

Turning to `CC(C)OC(=O)Nc1c([N+](=O)[O-])cc(C(F)(F)F)cc1[N+](=O)[O-]`, the GI50 was > 50 µM (inactive) in the assay with SNB-78; 54.1 µM (inactive) in the assay with SF-295; > 100 µM (inactive) in the assay with KM-20L2; 33 µM (inactive) in the assay with HOP-92; > 100 µM (inactive) with CCRF-CEM; > 100 µM (inactive) with TK-10. Moreover, the GI50 in the assay on UO-31 is > 90.2 µM (inactive); with DMS-273, > 100 µM (inactive); in the assay on MDA-N it was > 100 µM (inactive); in the assay on SN12C, > 91 µM (inactive); in the assay with UACC-62, > 100 µM (inactive); in the assay with SNB-75, 5.38 µM (inactive). The GI50 is > 100 µM (inactive) in the assay on LXFL 529; 20.1 µM (inactive) in the assay on RXF 393; 69.5 µM (inactive) in the assay with NCI-H23; > 100 µM (inactive) with EKVX; 39.4 µM (inactive) in the assay on SF-268; > 100 µM (inactive) with HCC 2998. The GI50 in the assay with HCT-116 and with COLO 205 was > 100 µM (inactive) each time.

For `N#CC1(C#N)C2C=CC(c3coc4cccc2c34)C1(C#N)C#N` (stereo not drawn), the GI50 was 15.8 µM (inactive) in the assay with SNB-78; 19.9 µM (inactive) with SF-295; 18.5 µM (inactive) in the assay on KM-20L2; 18 µM (inactive) in the assay with HOP-92; 1.11 µM (active) in the assay with CCRF-CEM; 7.05 µM (inactive) in the assay with TK-10. Also, the GI50 with UO-31 was 12.8 µM (inactive); in the assay on DMS-273, 16.7 µM (inactive); with SN12C, 11 µM (inactive); in the assay with UACC-62, 10.2 µM (inactive); in the assay with SNB-75, 19.4 µM (inactive); in the assay on LXFL 529, 8.87 µM (inactive). Also, the GI50 is 3.91 µM (inactive) in the assay with RXF 393; 18.7 µM (inactive) in the assay with NCI-H23; 15.5 µM (inactive) with EKVX; 6.27 µM (inactive) with SF-268; 15.2 µM (inactive) with HCC 2998; 2.49 µM (inactive) with HCT-116. Besides, the GI50 in the assay with COLO 205 is 1.9 µM (inactive).

Turning to `C/C=C1\Oc2ccc(OC)cc2S1(=O)=O`, the GI50 in the assay with SNB-78, in the assay on SF-295, in the assay with KM-20L2, in the assay on HOP-92, with CCRF-CEM and with TK-10 was > 100 µM (inactive) throughout. In addition, the GI50 with UO-31, in the assay with DMS-273, with SN12C, with UACC-62, with SNB-75 and in the assay with LXFL 529 was > 100 µM (inactive) in each case. For the same compound, the GI50 in the assay on RXF 393, with NCI-H23, in the assay with EKVX, in the assay with SF-268, with HCC 2998 and with HCT-116 was > 100 µM (inactive) in each case. In addition, the GI50 in the assay with COLO 205 is > 100 µM (inactive).

For `CCOC(=O)c1cc2c3c(c(O)c(OC)c2s1)N(C(=O)c1cc2c4c(c(O)c(OC)c2s1)N(C(C)=O)CC4)CC3`, the GI50 in the assay on SNB-78 was > 100 µM (inactive); with SF-295, 54.3 µM (inactive); with KM-20L2, > 100 µM (inactive); in the assay with HOP-92, 29 µM (inactive); in the assay on CCRF-CEM, > 100 µM (inactive); in the assay on TK-10 it was > 100 µM (inactive). For the same compound, the GI50 in the assay on UO-31 is 64.4 µM (inactive); with DMS-273 it was 61.8 µM (inactive); with SN12C, > 100 µM (inactive); in the assay on UACC-62, 98.6 µM (inactive); in the assay with SNB-75, 23.4 µM (inactive); in the assay with LXFL 529, 93.3 µM (inactive). The GI50 in the assay on RXF 393 was 54.1 µM (inactive); in the assay with NCI-H23 it was > 100 µM (inactive); in the assay on EKVX, > 100 µM (inactive); in the assay with SF-268, > 100 µM (inactive); in the assay on HCC 2998, > 100 µM (inactive); in the assay with HCT-116, > 100 µM (inactive). Besides, the GI50 with COLO 205 is > 100 µM (inactive).

In the case of `CCCCCCCCCCCCCCCC(=O)OCC1OC(N2C(=O)/C(=N\NC(N)=S)c3ccc([N+](=O)[O-])cc32)C(OC(C)=O)C1OC(C)=O` (stereo not drawn), the GI50 with SNB-78 was > 100 µM (inactive); in the assay on SF-295, > 100 µM (inactive); in the assay on KM-20L2, 57.3 µM (inactive); in the assay with HOP-92, 93.5 µM (inactive); in the assay with CCRF-CEM, > 100 µM (inactive); in the assay with TK-10 it was > 100 µM (inactive). Also, the GI50 with DMS-273 is > 100 µM (inactive); in the assay on SN12C it was > 100 µM (inactive); with UACC-62, 69.7 µM (inactive); in the assay with SNB-75 it was > 100 µM (inactive); in the assay on LXFL 529, 38.7 µM (inactive); in the assay on RXF 393, > 100 µM (inactive). Moreover, the GI50 in the assay on NCI-H23 was > 100 µM (inactive); in the assay with EKVX it was 39.4 µM (inactive); with SF-268, > 100 µM (inactive); in the assay on HCC 2998, > 100 µM (inactive); with HCT-116 it was 29 µM (inactive); in the assay with COLO 205 it was 37.1 µM (inactive).

For the compound `C=C(CN(CC(=C)C(=O)c1ccccc1)C(C)(C)C)C(=O)c1ccccc1`, the GI50 was 25.5 µM (inactive) with SNB-78; 28.3 µM (inactive) in the assay on SF-295; 18.7 µM (inactive) with KM-20L2; 5.62 µM (inactive) with HOP-92; 1.5 µM (inactive) with CCRF-CEM; 13.8 µM (inactive) in the assay on TK-10. For the same compound, the GI50 in the assay with UO-31 is 11.7 µM (inactive); with DMS-273, 16.7 µM (inactive); with SN12C, 16.3 µM (inactive); in the assay with UACC-62 it was 17.2 µM (inactive); in the assay on SNB-75 it was 12.8 µM (inactive); in the assay with LXFL 529, 3.84 µM (inactive). Moreover, the GI50 in the assay on RXF 393 was 5.36 µM (inactive); in the assay with NCI-H23 it was 16.4 µM (inactive); with EKVX, 18.9 µM (inactive); in the assay on SF-268, 12.2 µM (inactive); in the assay with HCC 2998 it was 19 µM (inactive); with HCT-116, 13.8 µM (inactive). Also, the GI50 in the assay on COLO 205 was 2.65 µM (inactive).
